Activity calls are given as the source filed them. The rule behind the calls is not given here.
Assays:
Assay type in all cases: functional, cell-based
HepG2 [1] = experiment: Cytotoxicity against human HepG2 cells assessed as growth inhibition after 72 hrs by MTT assay; details: for IC50: HepG2, 72 h
[2] = Cytotoxicity against 5-fluorouracil-resistant human Bel7402 cells assessed as growth inhibition after 72 hrs by MTT assay; details: Bel-7402, 72 h
[3] = (§1) Cytotoxicity against human HuH7 cells assessed as growth inhibition after 72 hrs by MTT assay; details: Huh-7, 72 h
[4] = (§2) Cytotoxicity against human A875 cells assessed as growth inhibition after 72 hrs by MTT assay; details: A875, 72 h
HepG2 [5] = experiment: Cytotoxicity against human HepG2 cells assessed as decrease in cell level at 10 ug/ml after 48 hrs by inverted microscopic analysis
Huh-7 = experiment: as §1
HepG2 [6] = experiment: Cytotoxicity against human HepG2 cells assessed as cell shrinkage at 10 ug/ml after 48 hrs by inverted microscopic analysis
A875 = experiment: as §2

Q: Which results are given for C[C@]12CC[C@H](O)CC1=CC[C@@H]1[C@@H]2CC[C@]2(C)/C(=N/c3ccccc3)CC[C@@H]12?
A: IC50 (HepG2 [1]): 63.5 µM; IC50 [2]: > 100 µM; IC50 [3]: > 100 µM; IC50 [4]: 82.7 µM

Q: Which Activity (HepG2 [5]) does the source give for C[C@]12CC[C@H](O)CC1=CC[C@@H]1[C@@H]2CC[C@]2(C)/C(=N/N=C3\C(=O)Nc4ccc(Br)cc43)CC[C@@H]12 here?
A: Active

Q: What about the “growth inhibition (GI)” value (HepG2 [1]) of the same compound?
A: Dose-dependent effect

Q: And the IC50 (HepG2 [1])?
A: 16.2 µM

Q: And the IC50 [2]?
A: 5.97 µM

Q: What about the “growth inhibition (GI)” value (Huh-7) of the same compound?
A: Dose-dependent effect

Q: And the IC50 [3]?
A: 13.9 µM

Q: What about the Activity (HepG2 [6]) of the same compound?
A: Active

Q: What about the “growth inhibition (GI)” value (A875) of the same compound?
A: Dose-dependent effect

Q: What about the IC50 [4] of the same compound?
A: 14.8 µM

Q: What does the source list for C[C@]12CC[C@H](O)CC1=CC[C@@H]1[C@@H]2CC[C@]2(C)/C(=N/Cc3ccccc3)CC[C@@H]12?
A: IC50 (HepG2 [1]): 32.6 µM; IC50 [2]: > 100 µM; IC50 [3]: > 100 µM; IC50 [4]: 42.5 µM

Q: Which results are given for CC(C)c1ccc(/N=C2\CC[C@H]3[C@@H]4CC=C5C[C@@H](O)CC[C@]5(C)[C@H]4CC[C@]23C)cc1?
A: IC50 (HepG2 [1]): 44.3 µM; IC50 [2]: > 90 µM; IC50 [3]: > 90 µM; IC50 [4]: 61.5 µM

Q: Which results are given for O=c1[nH]cc(F)c(=O)[nH]1 [FLUOROURACIL]?
A: growth inhibition (GI) (HepG2 [1]): Dose-dependent effect; IC50 (HepG2 [1]): > 150 µM; IC50 [2]: > 700 µM; growth inhibition (GI) (Huh-7): Dose-dependent effect; IC50 [3]: > 100 µM; growth inhibition (GI) (A875): Dose-dependent effect; IC50 [4]: > 150 µM

Q: What does the source list for C[C@]12CC[C@H](O)CC1=CC[C@@H]1[C@@H]2CC[C@]2(C)/C(=N/Nc3ccccc3)CC[C@@H]12?
A: IC50 (HepG2 [1]): 43.1 µM; IC50 [2]: 29.9 µM; IC50 [3]: 55.4 µM; IC50 [4]: > 100 µM

Q: For C[C@]12CC[C@H](O)CC1=CC[C@@H]1[C@@H]2CC[C@]2(C)/C(=N/Nc3ncccc3Cl)CC[C@@H]12, which IC50 (HepG2 [1]) is on record?
A: > 90 µM

Q: What about the IC50 [3] of the same compound?
A: > 90 µM

Q: What about the IC50 [4] of the same compound?
A: > 90 µM

Q: Which Activity (HepG2 [5]) does the source give for C[C@]12CC[C@H](O)CC1=CC[C@@H]1[C@@H]2CC[C@]2(C)/C(=N/N=C3\C(=O)Nc4ccccc43)CC[C@@H]12 here?
A: Active

Q: And the “growth inhibition (GI)” value (HepG2 [1])?
A: Dose-dependent effect

Q: What about the IC50 (HepG2 [1]) of the same compound?
A: 13.3 µM

Q: What about the IC50 [2] of the same compound?
A: 21.8 µM

Q: And the “growth inhibition (GI)” value (Huh-7)?
A: Dose-dependent effect

Q: And the IC50 [3]?
A: 28.2 µM

Q: And the Activity (HepG2 [6])?
A: Active

Q: And the “growth inhibition (GI)” value (A875)?
A: Dose-dependent effect

Q: And the IC50 [4]?
A: 25.2 µM

Q: For C[C@]12CC[C@H](O)CC1=CC[C@@H]1[C@@H]2CC[C@]2(C)/C(=N/N=C3\C(=O)Nc4ccc([N+](=O)[O-])cc43)CC[C@@H]12, which IC50 (HepG2 [1]) is on record?
A: 27.4 µM

Q: And the IC50 [2]?
A: 10.1 µM

Q: And the IC50 [3]?
A: 30.6 µM

Q: And the IC50 [4]?
A: 69 µM

Q: Which “growth inhibition (GI)” value (HepG2 [1]) does the source give for C[C@]12CC[C@H](O)CC1=CC[C@@H]1[C@@H]2CC[C@]2(C)/C(=N/N=C3\C(=O)Nc4cc(F)ccc43)CC[C@@H]12 here?
A: Dose-dependent effect

Q: What about the IC50 (HepG2 [1]) of the same compound?
A: 19.7 µM

Q: And the IC50 [2]?
A: 12.8 µM

Q: And the “growth inhibition (GI)” value (Huh-7)?
A: Dose-dependent effect

Q: And the IC50 [3]?
A: 22.3 µM

Q: And the “growth inhibition (GI)” value (A875)?
A: Dose-dependent effect

Q: What about the IC50 [4] of the same compound?
A: 29.6 µM

Q: What does the source list for C[C@]12CC[C@H](O)CC1=CC[C@@H]1[C@@H]2CC[C@]2(C)/C(=N/N=C3\C(=O)Nc4ccc(I)cc43)CC[C@@H]12?
A: IC50 (HepG2 [1]): 22.5 µM; IC50 [2]: 14.1 µM; IC50 [3]: > 70 µM; IC50 [4]: 43.7 µM
